Measurements published in patent US20260138961A1, “MODULATORS OF MITOCHONDRIAL DNA REPLICATION” (Pretzel Therapeutics, Inc., priority 2022, published 2026).

Molecular target: T1, POLγA:Y955C (Homo sapiens, UniProt P54098, Y955C)
T1 sequence (P54098 1-1239 Y955C): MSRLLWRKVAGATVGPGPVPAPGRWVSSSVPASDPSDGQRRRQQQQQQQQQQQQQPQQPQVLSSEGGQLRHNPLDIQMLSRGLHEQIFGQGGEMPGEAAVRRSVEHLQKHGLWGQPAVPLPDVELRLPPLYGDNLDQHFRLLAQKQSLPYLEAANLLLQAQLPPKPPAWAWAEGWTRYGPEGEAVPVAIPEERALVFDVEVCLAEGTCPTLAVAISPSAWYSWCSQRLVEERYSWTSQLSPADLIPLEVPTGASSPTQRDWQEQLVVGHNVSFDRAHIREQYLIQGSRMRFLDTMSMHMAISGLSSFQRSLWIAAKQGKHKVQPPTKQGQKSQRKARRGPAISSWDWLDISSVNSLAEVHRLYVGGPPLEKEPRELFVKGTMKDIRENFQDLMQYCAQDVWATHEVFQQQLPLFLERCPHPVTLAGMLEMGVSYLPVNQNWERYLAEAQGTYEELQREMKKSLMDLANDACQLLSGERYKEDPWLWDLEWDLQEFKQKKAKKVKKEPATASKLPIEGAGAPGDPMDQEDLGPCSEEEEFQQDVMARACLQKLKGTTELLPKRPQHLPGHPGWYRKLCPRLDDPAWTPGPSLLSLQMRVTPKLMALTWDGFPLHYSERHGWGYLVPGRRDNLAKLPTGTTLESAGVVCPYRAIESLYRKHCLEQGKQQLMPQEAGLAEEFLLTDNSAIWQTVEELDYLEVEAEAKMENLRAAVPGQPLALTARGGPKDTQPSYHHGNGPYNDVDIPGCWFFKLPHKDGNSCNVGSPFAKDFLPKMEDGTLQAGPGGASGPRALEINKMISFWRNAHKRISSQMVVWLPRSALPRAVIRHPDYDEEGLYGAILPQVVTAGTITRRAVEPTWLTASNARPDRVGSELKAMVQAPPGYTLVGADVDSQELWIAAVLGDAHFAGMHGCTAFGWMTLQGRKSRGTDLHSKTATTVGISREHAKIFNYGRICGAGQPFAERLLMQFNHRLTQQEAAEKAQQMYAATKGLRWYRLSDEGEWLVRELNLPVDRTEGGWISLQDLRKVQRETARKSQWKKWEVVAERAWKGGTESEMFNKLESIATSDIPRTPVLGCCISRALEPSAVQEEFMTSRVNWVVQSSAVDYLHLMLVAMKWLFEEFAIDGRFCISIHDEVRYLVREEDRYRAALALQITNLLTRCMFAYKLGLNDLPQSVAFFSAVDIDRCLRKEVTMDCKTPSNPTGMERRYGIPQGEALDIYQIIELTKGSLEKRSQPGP
T1 sequence (Q9UHN1 1-485 partner): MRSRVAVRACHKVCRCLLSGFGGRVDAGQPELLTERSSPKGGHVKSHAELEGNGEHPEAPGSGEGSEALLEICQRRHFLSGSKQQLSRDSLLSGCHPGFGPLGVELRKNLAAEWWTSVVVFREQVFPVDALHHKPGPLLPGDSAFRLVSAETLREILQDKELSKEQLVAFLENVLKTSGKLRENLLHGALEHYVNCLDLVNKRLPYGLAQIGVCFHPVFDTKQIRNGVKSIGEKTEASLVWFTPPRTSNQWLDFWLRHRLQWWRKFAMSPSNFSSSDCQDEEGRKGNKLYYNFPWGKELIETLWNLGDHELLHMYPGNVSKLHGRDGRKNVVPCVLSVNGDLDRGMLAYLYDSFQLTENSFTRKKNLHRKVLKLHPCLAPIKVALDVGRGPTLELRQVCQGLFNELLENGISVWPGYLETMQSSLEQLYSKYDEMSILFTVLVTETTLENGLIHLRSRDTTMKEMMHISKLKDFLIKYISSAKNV
Test: DNA polymerization assay, POLγA:Y955C mutant
Format: biochemical
Conditions: stimulation of polymerase activity, primed M13mp18 ssDNA, 37° C. 2 hours
Protocol: DNA Polymerization Assay to Monitor Effects on Human Wildtype POLγ and Four Disease-Causing Mutant Variants of Human POLγ.
The ability of small molecules to stimulate the polymerase activity of POLγ was analyzed in a quantitative fluorescence SYBR Green I assay with fluorescence intensity (FI) readout.
In the presence of dNTPs, wild type human POLγ and mutant derivatives thereof were incubated with single-stranded, circular M13mp18 ssDNA hybridized to a short DNA oligonucleotide that functions as a primer for initiation of DNA synthesis. POLγ and mutant derivatives thereof will extend the primer and use the M13mp18 molecule as a template to synthesize long stretches of double-stranded DNA. SYBR Green I, which is a double-stranded DNA-binding dye, was used to quantify formation of double-stranded DNA in the reaction. When bound to double-stranded DNA, SYBR Green I fluorescence increases by up to 100-fold.
The assay was performed in the 384-well plate format. Upon addition of compounds, changes in double-stranded DNA synthesis activity can be monitored by following effects on fluorescent intensity.
The reactions also contained the accessory POLγB subunit, and the human mitochondrial single-stranded DNA binding protein (mtSSB).
The DNA template mixture used in the assay contained 0.5 nM primed M13 mp18 ssDNA, 400 nM mtSSB, 0.1 mM Tris-HCl (pH 8.0), 0.1 mM dNTP, 10 mM MgCl2, 0.1 mg/mL BSA, 1 mM TCEP solution, and 0.02% Triton X-100. The DNA template mixture for the wild type protein contained either 100 μM dNTP, 1 μM dNTP, or 0.1 μM dNTP, designated in Table 2 as 100 μM, 1 μM, and 0.1 μM, respectfully.
Microplates with compounds (0.1 μL in each well) to be tested in the assay were prepared from 10 mM compound stocks in 100% DMSO, and equal amounts of DMSO without any compound were added to positive and negative control wells.
The protein mixture was dispensed (5 μL into each well) into compound plates and incubated at 37° C. for 15 minutes. After incubation, 5 μL of the DNA template mixture was dispensed into each well. The plates were then incubated at 37° C. for 2 hours.
During incubation, a combined stop buffer and detection reagent solution was prepared. The buffer contained 25 mM EDTA (pH 8.0), 0.02% Triton X-100, and SYBR Green I [Invitrogen] diluted 10,000× (for fluorescent readout). EDTA will stop the enzymatic reaction by chelating magnesium ions.

| Molecule | AC50 |
| --- | --- |
| Cc1cc(S(=O)(=O)Nc2cccc(C(=O)N3CCCC[C@H]3C)c2)c(C)cc1Cl [Example 9, (R)-4-chloro-2,5-dimethyl-N-(3-(2-methylpiperidine-1-carbonyl)phenyl)benzenesulfonamide] | 2000 nM |
| Cc1cc(S(=O)(=O)Nc2cccc(C(=O)N3CCC[C@H]3C)c2)c(C)cc1Cl [Example 10, (R)-4-chloro-2,5-dimethyl-N-(3-(2-methylpyrrolidine-1-carbonyl)phenyl)benzenesulfonamide] | 400 nM |
| Cc1cc(S(=O)(=O)Nc2cccc(C(=O)NCc3ccccc3)c2)c(C)cc1Cl [Example 11, N-benzyl-3-((4-chloro-2,5-dimethylphenyl)sulfonamido)benzamide] | 4000 nM |
| Cc1ccc(C)c(S(=O)(=O)Nc2cccc(C(=O)N3CCCC[C@H]3C)c2)c1 [Example 5, (R)-2,5-dimethyl-N-(3-(2-methylpiperidine-1-carbonyl)phenyl)benzenesulfonamide] | 3000 nM |
| Cc1ccc(C)c(S(=O)(=O)Nc2cccc(C(=O)N3CCCCC3)c2)c1 [Example 3, 2,5-dimethyl-N-(3-(piperidine-1-carbonyl)phenyl)benzene sulfonamide] | 5000 nM |
| Cc1ccc(C)c(S(=O)(=O)Nc2cccc(C(=O)NCC3CC3)c2)c1 [Example 4, N-(cyclopropylmethyl)-3-((2,5-dimethylphenyl)sulfonamido)benzamide] | 11000 nM |
| Cc1cc(S(=O)(=O)Nc2cccc(C(=O)N(C)C)c2)c(C)cc1Cl [Example 12, 3-((4-chloro-2,5-dimethylphenyl)sulfonamido)-N,N-dimethylbenzamide] | 2000 nM |
| Cc1ccc(C)c(S(=O)(=O)Nc2cccc(C(=O)N[C@@H](C)C3CC3)c2)c1 [Example 8, (S)-N-(1-cyclopropylethyl)-3-((2,5-dimethylphenyl)sulfonamido)benzamide] | 3000 nM |
| (R)-2,5-dimethyl-N-(3-(3-methylmorpholine-4-carbonyl)phenyl)benzenesulfonamide [Example 1] | 2000 nM |
| Cc1ccc(C)c(S(=O)(=O)Nc2cccc(C(=O)N3CCOCC3C#N)c2)c1 (centres unmarked) [Example 7, N-(3-(3-cyanomorpholine-4-carbonyl)phenyl)-2,5-dimethylbenzenesulfonamide] | 1000 nM |
| Cc1ccc(C)c(S(=O)(=O)Nc2cccc(C(=O)N3CCCC[C@@H]3C)c2)c1 [Example 6, (S)-2,5-dimethyl-N-(3-(2-methylpiperidine-1-carbonyl)phenyl)benzenesulfonamide] | 5000 nM |
| Cc1ccc(C)c(S(=O)(=O)Nc2cccc(C(=O)N3CCCCC3C#N)c2)c1 (centres unmarked) [Example 2, N-(3-(2-cyanopiperidine-1-carbonyl)phenyl)-2,5-dimethylbenzenesulfonamide] | 1000 nM |

The remaining lines, values ahead:

| AC50 | Molecule |
| --- | --- |
| 800 nM | Cc1cc(S(=O)(=O)Nc2cccc(-c3nccs3)c2)c(C)cc1Cl [Example 16, 4-chloro-2,5-dimethyl-N-(3-(thiazol-2-yl)phenyl)benzenesulfonamide] |
| 50000 nM | Cc1cc(S(=O)(=O)Nc2cccc(-c3ncc(C#N)s3)c2)c(C)cc1Cl [Example 96, 4-chloro-N-(3-(5-cyanothiazol-2-yl)phenyl)-2,5-dimethylbenzenesulfonamide] |
| 3000 nM | Cc1cc(S(=O)(=O)Nc2cccc(-c3ccn(C)n3)c2)c(C)cc1Cl [Example 18, 4-chloro-2,5-dimethyl-N-(3-(1-methyl-1H-pyrazol-3-yl)phenyl)benzenesulfonamide] |
| > 10000 nM | Cc1cnc(-c2ccc(C)c(NS(=O)(=O)c3cc(C)c(Cl)cc3C)c2)s1 [Example 98, 4-chloro-2,5-dimethyl-N-(2-methyl-5-(5-methylthiazol-2-yl)phenyl)benzenesulfonamide] |
| 800 nM | Cc1cc(S(=O)(=O)Nc2cccc(-c3ncco3)c2)c(C)cc1Cl [Example 17, 4-chloro-2,5-dimethyl-N-(3-(oxazol-2-yl)phenyl)benzenesulfonamide] |
| > 100000 nM | Cc1cnc(-c2ccc(Cl)c(NS(=O)(=O)c3cc(C)c(Cl)cc3C)c2)s1 [Example 102, 4-chloro-N-(2-chloro-5-(5-methylthiazol-2-yl)phenyl)-2,5-dimethylbenzenesulfonamide] |
| 2000 nM | Cc1cc(S(=O)(=O)Nc2ccc3c(c2)CC(=O)N3)c(C)cc1Cl [Example 185, 4-chloro-2,5-dimethyl-N-(2-oxoindolin-5-yl)benzenesulfonamide] |
| 2000 nM | Cc1cc(S(=O)(=O)Nc2cc(F)cc(C(=O)N3CCC[C@H]3C)c2)c(C)cc1Cl [Example 13, (R)-4-chloro-N-(3-fluoro-5-(2-methylpyrrolidine-1-carbonyl)phenyl)-2,5-dimethylbenzenesulfonamide] |
| 9000 nM | Cc1cnc(-c2cc(NS(=O)(=O)c3cc(C)c(Cl)cc3C)ccc2C)s1 [Example 103, 4-chloro-2,5-dimethyl-N-(4-methyl-3-(5-methylthiazol-2-yl)phenyl)benzenesulfonamide] |
| 500 nM | Cc1cc(S(=O)(=O)Nc2cccc(-c3nccn3C)c2)c(C)cc1Cl [Example 19, 4-chloro-2,5-dimethyl-N-(3-(1-methyl-1H-imidazol-2-yl)phenyl)benzenesulfonamide] |
| 2000 nM | Cc1cc(S(=O)(=O)Nc2cccc(C(=O)N(C)C(C)CO)c2)c(C)cc1Cl (single isomer, unassigned) [Example 14, 3-((4-chloro-2,5-dimethylphenyl)sulfonamido)-N-(1-hydroxypropan-2-yl)-N-methylbenzamide] |
